From patent publication US20220280594A1, “APPLICATION OF POLYPEPTIDE OR DERIVATIVE THEREOF” (CHENGDU HUITAI BIOMEDICINE CO., LTD., priority 2019, published 2022)
Ends that are not written are not given here. PEG = not defined here

Columns and labels:
Assay type in all cases: cell-based
[1] = test system: human breast cancer cells (MDA-MB-231); test: scratch assay, migration of MDA-MB-231 cells; conditions: MDA-MB-231, 10 μM, 48 hours; control group 36.19 ± 5.15
Description: (§1) In the scratch assay, the cell migration rate was negatively correlated with the inhibitory effect of the drug component on tumor cell migration ability. The cell migration inhibition experiment was described as follows: tumor cells were cultured in vitro, cells in logarithmic growth phase were collected and seeded evenly in a 24-well plate at a density of 1-2×10^5 cells/well; the cells were cultured in a cell incubator until a monolayer was formed; a scratch tool was used to make a “-” (straight) scratch on the monolayer of cells; the cells were washed 1-3 times with PBS, and a medium (with 2% fetal bovine serum) containing specific test components was added to the culture. Experimental grouping: PBS control group; polypeptide or derivative thereof treatment group (N1-N54), 10 μM. Three independent parallel wells were set up in each group, and the cells were cultured continuously in a cell incubator for 48 hours. […] At least 3 representative images for each well were taken. ImageJ software was used to count the migration distance of the cells, and the cell migration rate was calculated as: cell migration rate (%)=(width of original scratch−width of current scratch)/width of original scratch×100.
This example was a scratch assay to evaluate the inhibitory effect of the polypeptide or derivative thereof (N1-N54) on the migration ability of human breast cancer cells (MDA-MB-231). The experimental method was as described in Example 2.

[2] = test system: human pancreatic cancer cells (PANC-1); test: scratch assay, migration of PANC-1 cells; conditions: PANC-1, 10 μM, 48 hours; control group 66.65 ± 3.37
Description: as §1
This example was a scratch assay to evaluate the inhibitory effect of the polypeptide or derivative thereof (N1-N54) on the migration ability of human pancreatic cancer cells (PANC-1). The experimental method was as described in Example 2.

[3] = test system: human prostate cancer cells (22RV1); test: scratch assay, migration of 22RV1 cells; conditions: 22RV1, 10 μM, 48 hours; control group 25.41 ± 5.01
Description: as §1
This example was a scratch assay to evaluate the inhibitory effect of the polypeptide or derivative thereof (N1-N54) on the migration ability of human prostate cancer cells (22RV1). The experimental method was as described in Example 2.

[4] = test system: human pancreatic cancer cells (PANC-1); test: transwell invasion assay, PANC-1 cells; conditions: PANC-1 transwell invasion, 10 μM, 24 hours; control group 727 ± 68
Source text: (§2) The Transwell chamber system was used in the transwell cell invasion experiment. The chamber has an upper layer and a lower layer, which are separated by an artificial semipermeable membrane in the middle. The upper surface of the semipermeable membrane is coated with a layer of artificial matrigel to simulate extracellular matrix. Cells that have invaded through the matrigel and semi-permeable membrane will attach to the lower surface of the semi-permeable membrane. The invasion ability is evaluated by counting the number of cells on the lower surface of the semi-permeable membrane. The number of cells that have invaded is negatively correlated with the inhibitory effect of the drug on the invasion ability of the tumor cells. Transwell invasion assay was performed as follows: tumor cells were cultured in vitro, cells in logarithmic growth phase were collected, and cell suspension was prepared with fresh serum-free medium at a density of 2-3×10^5 cells/mL. Cells were inoculated, 100 μL/well cell suspension (serum-free medium) in the upper chamber and 600 μL/well complete culture medium in the lower chamber. After incubated in 37° C., 5% CO2 incubator for 4-5 hours, serum-free medium (100 μL/well) was added to the control group, and serum-free medium containing polypeptide or derivative thereof (N1-N54) was added to the upper chamber of the treatment group (100 μL/well), the final concentration of the peptide or derivative thereof in the upper chamber was 10 μM. The cells were incubated continuously for 24 hours, and then fixed with methanol and stained with crystal violet. Images were taken under a microscope and the number of invaded cells was counted with ImageJ.
This example was the transwell cell invasion experiment to evaluate the inhibitory effect of the polypeptide or derivative thereof (N1-N54) on the invasion ability of human pancreatic cancer cells (PANC-1). The experimental method was as described in Example 4.

[5] = test system: human breast cancer cells (MCF-7); test: scratch assay, migration of MCF-7 cells; conditions: MCF-7, 10 μM, 48 hours; control group 30.97 ± 1.79
Description: as §1
This example was a scratch assay to evaluate the inhibitory effect of the polypeptide or derivative thereof (N1-N54) on the migration ability of human breast cancer cells (MCF-7). The experimental method was as described in Example 2.

[6] = test system: human liver cancer cells (HepG2); test: scratch assay, migration of HepG2 cells; conditions: HepG2, 10 μM, 48 hours; control group 71.01 ± 6.63
Description: as §1
This example was a scratch assay to evaluate the inhibitory effect of the polypeptide or derivative thereof (N1-N54) on the migration ability of human liver cancer cells (HepG2). The experimental method was as described in Example 2.

[7] = test system: human liver adenocarcinoma cells (SK-HEP-1); test: transwell invasion assay, SK-HEP-1 cells; conditions: SK-HEP-1 transwell invasion, 10 μM, 24 hours; control group 767 ± 91
Source text: as §2
This example was a transwell cell invasion experiment to evaluate the inhibitory effect of the polypeptide or derivative thereof (N1-N54) on the invasion ability of human liver adenocarcinoma cells (SK-HEP-1). The experimental method was as described in Example 4.

[8] = test system: human pharyngeal squamous-cell carcinoma cells (Fadu); test: scratch assay, migration of Fadu cells; conditions: 10 μM, 48 hours, control group 28.76 ± 4.08
Description: as §1
This example was a scratch assay to evaluate the inhibitory effect of the polypeptide or derivative thereof (N1-N54) on the migration ability of human pharyngeal squamous-cell carcinoma cells (Fadu). The experimental method was as described in Example 2.

[9] = test system: human melanoma cells (A375); test: scratch assay, migration of A375 cells; conditions: A375, 10 μM, 48 hours; control group 44.03 ± 6.21
Description: as §1
This example was a scratch assay to evaluate the inhibitory effect of the polypeptide or derivative thereof (N1-N54) on the migration ability of human melanoma cells (A375). The experimental method was as described in Example 2.

[10] = test system: human colon cancer cells (HCT-116); test: scratch assay, migration of HCT-116 cells; conditions: HCT-116, 10 μM, 48 hours; control group 47.78 ± 6.07
Description: as §1
This example was a scratch assay to evaluate the inhibitory effect of the polypeptide or derivative thereof (N1-N54) on the migration ability of human colon cancer cells (HCT-116). The experimental method was as described in Example 2.

Substance	Migration rate (%) (mean ± SD, P) [1]	Migration rate (%) (mean ± SD, P) [2]	Migration rate (%) (mean ± SD, P) [3]	Number of cells (mean ± SD, P), invaded cells [4]	Migration rate (%) (mean ± SD, P) [5]	Migration rate (%) (mean ± SD, P) [6]	Number of cells (mean ± SD, P), invaded cells [7]	Migration rate (%) (mean ± SD, P) [8]	Migration rate (%) (mean ± SD, P) [9]	Migration rate (%) (mean ± SD, P) [10]
N43: SEQ ID NO: 1 with addition of one amino acid at the amino terminal, deletion of position 18, PEG at the carboxyl terminal (RYRVRFLAKENVTQDAED-{PEG}; reading uncertain)	12.19 ± 5.70,** %	18.87 ± 6.90,*** %	6.57 ± 1.35,** %	251 ± 10,****	7.83 ± 3.42,** %	26.54 ± 7.89,** %	107 ± 16,****	10.04 ± 2.50,** %	11.22 ± 1.74,*** %	4.56 ± 1.52,*** %
N45: SEQ ID NO: 1 with V11R, deletion of positions 1-5 and 15-18, PEG modification at the carboxyl terminal (LAKENRTQD-{PEG}; reading uncertain)	13.02 ± 4.54,** %	45.16 ± 5.74,** %	11.63 ± 2.82,* %	358 ± 23,***	17.06 ± 2.87,* %	52.98 ± 4.08,* %	155 ± 10,****	9.34 ± 2.86,*** %	18.79 ± 2.28,** %	28.34 ± 2.87,** %
N3: SEQ ID NO: 1 with deletion of position 18 and PEG modification at the amino terminal ({PEG}-YRVRFLAKENVTQDAED; reading uncertain)	21.98 ± 2.74,* %	29.67 ± 5.64,*** %	6.15 ± 4.65,** %	111 ± 10,****	10.39 ± 2.07,** %	17.57 ± 6.98,*** %	372 ± 62,***	12.97 ± 3.58,** %	4.91 ± 1.19,*** %	22.06 ± 4.59,** %
N41: SEQ ID NO: 1 with addition of two amino acids at the amino terminal, deletion of position 18, PEG at the carboxyl terminal (FRYRVRFLAKENVTQDAED-{PEG}; reading uncertain)	14.75 ± 4.28,** %	14.44 ± 7.40,*** %	7.83 ± 1.84,** %	288 ± 38,****	5.19 ± 2.94,*** %	25.59 ± 6.26,*** %	58 ± 12,****	12.00 ± 4.73,** %	10.01 ± 2.07,*** %	5.78 ± 2.76,*** %
N12: SEQ ID NO: 1 with deletion of position 18 and positions 1-2 (VRFLAKENVTQDAED)	15.41 ± 3.55,** %	23.26 ± 6.90,** %	6.61 ± 2.83,** %	180 ± 17,****	11.65 ± 3.32,** %	48.01 ± 5.38,** %	308 ± 42,***	17.72 ± 2.53,** %	12.46 ± 3.75,*** %	8.14 ± 3.00,*** %
N7: SEQ ID NO: 1 with addition of one amino acid at the carboxyl terminal and substitution A15R (YRVRFLAKENVTQDREDNC)	21.04 ± 2.46,* %	37.07 ± 7.83,** %	6.54 ± 2.24,** %	70 ± 17,****	12.59 ± 3.23,** %	11.54 ± 9.00,*** %	463 ± 52,**	13.12 ± 3.56,** %	8.95 ± 1.27,*** %	20.09 ± 2.41,** %
N49: SEQ ID NO: 1 with A7R, deletion of positions 1-2 and position 18, PEG modification at the carboxyl terminal (VRFLRKENVTQDAED-{PEG}; reading uncertain)	13.41 ± 3.12,** %	17.71 ± 7.65,*** %	6.18 ± 1.89,** %	141 ± 7,****	7.29 ± 3.80,** %	16.45 ± 5.88,*** %	335 ± 32,***	6.29 ± 2.62,*** %	6.51 ± 1.53,*** %	18.84 ± 2.99,** %
N19: SEQ ID NO: 1 with deletion of positions 1-5 and 15-18 and addition of two amino acids at the carboxyl terminal (LAKENVTQDRC)	15.23 ± 3.54,* %	19.76 ± 7.14,*** %	5.36 ± 1.6,** %	213 ± 20,****	11.84 ± 3.95,** %	12.10 ± 6.15,*** %	348 ± 40,***	17.23 ± 3.53,* %	12.93 ± 3.34,*** %	9.80 ± 2.62,*** %
